According to ChEMBL document CHEMBL4041509, “Structure-activity relationship study of novel 2-aminobenzofuran derivatives as P-glycoprotein inhibitors” (Eur J Med Chem, 2017):

Legend:
Assay type in all cases: cell-based
Conditions in all cases: 0.5 h
[1] = molecular target: T1, ATP-dependent translocase ABCB1 (Homo sapiens, UniProt P08183); test: Inhibition of ABCB1 (unknown origin) expressed in Flp-In-293 cells assessed as increase in calcein-AM uptake at 10 uM preincubated for 30 mins followed by calcein-AM addition measured after 30 mins by fluorescence spectrometric method relative to control
T1 sequence (P08183 whole entry): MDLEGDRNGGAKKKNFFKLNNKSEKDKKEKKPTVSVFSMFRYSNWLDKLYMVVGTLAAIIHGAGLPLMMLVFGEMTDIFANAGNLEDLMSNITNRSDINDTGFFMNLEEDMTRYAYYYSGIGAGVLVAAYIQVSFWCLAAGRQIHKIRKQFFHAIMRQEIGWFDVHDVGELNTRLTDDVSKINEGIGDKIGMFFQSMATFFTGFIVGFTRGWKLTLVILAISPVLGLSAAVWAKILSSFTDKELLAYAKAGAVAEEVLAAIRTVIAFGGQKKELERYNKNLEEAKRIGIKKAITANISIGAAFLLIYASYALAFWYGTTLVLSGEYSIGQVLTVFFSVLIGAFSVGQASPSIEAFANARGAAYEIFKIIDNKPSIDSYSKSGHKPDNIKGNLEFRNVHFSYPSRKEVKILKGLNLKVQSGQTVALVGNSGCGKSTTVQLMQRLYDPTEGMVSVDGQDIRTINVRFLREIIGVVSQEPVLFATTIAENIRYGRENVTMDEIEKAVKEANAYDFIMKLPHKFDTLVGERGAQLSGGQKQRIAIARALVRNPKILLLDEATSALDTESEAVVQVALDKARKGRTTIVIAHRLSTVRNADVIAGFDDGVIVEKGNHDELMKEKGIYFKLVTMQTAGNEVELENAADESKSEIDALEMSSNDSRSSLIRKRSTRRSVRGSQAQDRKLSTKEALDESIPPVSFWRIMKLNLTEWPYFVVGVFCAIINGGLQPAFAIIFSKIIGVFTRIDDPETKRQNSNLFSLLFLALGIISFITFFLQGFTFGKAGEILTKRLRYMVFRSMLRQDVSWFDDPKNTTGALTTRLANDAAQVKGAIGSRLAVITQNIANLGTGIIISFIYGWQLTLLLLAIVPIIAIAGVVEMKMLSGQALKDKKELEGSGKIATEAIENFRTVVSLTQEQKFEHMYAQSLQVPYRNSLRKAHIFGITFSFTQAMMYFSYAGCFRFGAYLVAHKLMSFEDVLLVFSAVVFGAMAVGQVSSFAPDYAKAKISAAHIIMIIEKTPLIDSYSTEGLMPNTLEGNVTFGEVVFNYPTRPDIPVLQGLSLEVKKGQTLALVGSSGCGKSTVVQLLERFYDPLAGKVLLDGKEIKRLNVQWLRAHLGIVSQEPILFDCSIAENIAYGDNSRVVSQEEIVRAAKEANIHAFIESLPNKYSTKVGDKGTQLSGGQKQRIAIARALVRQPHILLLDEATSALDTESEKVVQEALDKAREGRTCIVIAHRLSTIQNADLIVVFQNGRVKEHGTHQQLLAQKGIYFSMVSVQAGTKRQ

[2] = molecular target: T1, ATP-dependent translocase ABCB1; test: Inhibition of ABCB1 (unknown origin) expressed in Flp-In-293 cells assessed as increase in calcein-AM uptake at 5 uM preincubated for 30 mins followed by calcein-AM addition measured after 30 mins by fluorescence spectrometric method relative to control
[3] = molecular target: T1, ATP-dependent translocase ABCB1; test: Inhibition of ABCB1 (unknown origin) expressed in Flp-In-293 cells assessed as increase in calcein-AM uptake at 2.5 uM preincubated for 30 mins followed by calcein-AM addition measured after 30 mins by fluorescence spectrometric method relative to control

COc1ccc(-c2cc(OCCN3CCOCC3)c3c(-c4cccs4)c(N)oc3c2)cc1OC
fold change (FC) [1]: 8.85
fold change (FC) [2]: 8.42

COc1ccc(-c2cc(OCCN3CCCCC3)c3c(-c4cccs4)c(N)oc3c2)cc1
fold change (FC) [1]: 5.66
fold change (FC) [2]: 7.53

CC(=O)Oc1cc(-c2ccccc2)cc2oc(N)c(-c3cccs3)c12
fold change (FC) [3]: 0.95
fold change (FC) [2]: 0.98

COc1ccc(-c2cc(OC(C)=O)c3c(-c4ccccc4F)c(N)oc3c2)cc1
fold change (FC) [3]: 1.31
fold change (FC) [2]: 1.82

COc1ccc(-c2cc(OC(C)=O)c3c(-c4ccc(F)cc4)c(N)oc3c2)cc1
fold change (FC) [3]: 0.94
fold change (FC) [2]: 1.26

COc1ccc(-c2cc(OCCN3CCCCC3)c3c(-c4cccs4)c(N)oc3c2)cc1OC
fold change (FC) [2]: 6.06

COc1ccc(-c2cc(OC(C)=O)c3c(-c4c(Cl)cccc4Cl)c(N)oc3c2)cc1
fold change (FC) [3]: 1.34
fold change (FC) [2]: 1.81

COc1ccc(-c2cc(OCc3ccncc3)c3c(-c4cccs4)c(N)oc3c2)cc1
fold change (FC) [1]: 5.88
fold change (FC) [2]: 4.33

COc1ccc(-c2cc(OCCCN3CCCCC3)c3c(-c4cccs4)c(N)oc3c2)cc1OC
fold change (FC) [2]: 4.55

COc1ccc(-c2cc(OCc3cccc(OC)c3)c3c(-c4cccs4)c(N)oc3c2)cc1
fold change (FC) [1]: 0.71
fold change (FC) [2]: 0.78

COc1ccc(-c2cc(OCc3cccc(Cl)c3)c3c(-c4cccs4)c(N)oc3c2)cc1
fold change (FC) [1]: 0.56
fold change (FC) [2]: 0.6

COc1ccc(-c2cc(OC(C)=O)c3c(-c4ccc(Cl)c(Cl)c4)c(N)oc3c2)cc1
fold change (FC) [3]: 1.82
fold change (FC) [2]: 1.83

COc1ccc(-c2cc(OC(C)=O)c3c(-c4ccccc4Cl)c(N)oc3c2)cc1
fold change (FC) [3]: 1.3
fold change (FC) [2]: 1.59

COc1ccc(-c2cc(OCc3cccnc3)c3c(-c4cccs4)c(N)oc3c2)cc1
fold change (FC) [1]: 4.72
fold change (FC) [2]: 3.68

CCN(CC)CCOc1cc(-c2ccc(OC)cc2)cc2oc(N)c(-c3cccs3)c12
fold change (FC) [1]: 10.14
fold change (FC) [2]: 8.85

COc1ccc(-c2cc(OC(C)=O)c3c(-c4cccs4)c(N)oc3c2)cc1
fold change (FC) [3]: 1.9
fold change (FC) [2]: 2.2

COc1ccc(-c2cc(OCc3ccncc3)c3c(-c4cccs4)c(N)oc3c2)cc1OC
fold change (FC) [1]: 7.79
fold change (FC) [2]: 5.93

COc1ccc(-c2cc(OCCN3CCOCC3)c3c(-c4cccs4)c(N)oc3c2)cc1
fold change (FC) [1]: 8.86
fold change (FC) [2]: 6.64

COc1ccc(-c2cc(OC(C)=O)c3c(-c4c(F)cccc4Cl)c(N)oc3c2)cc1
fold change (FC) [3]: 1.35
fold change (FC) [2]: 1.61
